Results on 1 compound are retold here after patent US11964960B2 (Cornell University, priority 2018, dated 2024).

The test system of assay [1] is WT mice subjected to ischemia/reperfusion (I/R). Conditions: I/R (Kim 2015); cited from earlier work.
The subject of assay [2] is BDL murine models of liver disease. Conditions: multiple studies (Wang 2017; Yang 2015); cited from earlier work.
The next assay concerns bile duct ligated mice. In words: Bile duct ligation (BDL) liver fibrosis model. Type of assay: in vivo, mouse. Conditions: 30 mg/kg daily. On the procedure: Six to eight-week-old mice were subjected to bile duct ligation to induce mouse cirrhotic liver injury model. To perform BDL, mice were subjected to a mid-abdominal incision, under general anesthesia. The common bile duct was ligated in two adjacent positions approximately 1 cm from the porta hepatis. The duct was then severed by incision between the two sites of ligation. One day after surgery, mice were administered compounds described herein at […] once daily. Drug delivery was performed by gavage in 0.5% methylcellulose with 0.1 Tween 80. Eight days after BDL surgery mice were harvested, though the harvesting can be performed at any suitable period of time, including 14 days after BDL surgery. Blood serum was collected for liver enzyme analysis and livers were harvested and were either snap frozen or fixed with 4% PFA and cryopreserved in OCT for sectioning and immunohistochemical analysis.
To test whether the compounds described herein act as S1PR2 antagonists in vivo, their effect was tested in BDL, a clinically relevant liver cholestasis model. The common bile duct was ligated and resected as described herein to cause biliary epithelial damage. One day post-surgery, mice were treated daily with 30 mg/kg of compound 29 or JTE-013:
In this double-blind mouse BDL study, the compounds were administered orally by gavage. […]

The target of the next assay is T1, S1PR2 (Mus musculus, UniProt P52592).
T1 construct: Liver tissues were collected at necropsy, flash frozen, and pulverized; from tissue; host or cells: mouse liver (bile duct ligation model)
In words: Immunoblot analysis of S1PR2 levels in liver tissue from mouse BDL study. The note with it: 30 mg/kg daily, orally; liver at end of eight-day study (FIG. 3). The format is in vivo. On the technique in general: A western blot detects proteins with antibodies after separation by electrophoresis.

T1 sequence (P52592 whole entry): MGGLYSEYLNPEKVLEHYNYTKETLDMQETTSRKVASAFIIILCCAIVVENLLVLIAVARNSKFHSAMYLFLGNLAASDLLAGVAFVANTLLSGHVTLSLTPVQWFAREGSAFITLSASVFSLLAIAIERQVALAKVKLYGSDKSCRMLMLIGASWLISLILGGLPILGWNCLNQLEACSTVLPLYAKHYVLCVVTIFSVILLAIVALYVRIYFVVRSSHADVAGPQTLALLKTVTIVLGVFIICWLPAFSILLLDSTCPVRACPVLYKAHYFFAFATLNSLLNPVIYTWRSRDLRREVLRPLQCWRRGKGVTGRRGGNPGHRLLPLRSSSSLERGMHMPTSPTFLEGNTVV
Excerpt for S1PR2: Liver tissues were collected at necropsy, flash frozen, and pulverized. The powder was resuspended in RIPA lysis buffer with PI, NAF, and sodium deoxy cholate.
Liver samples collected in an identical manner from S1PR2 global KO and WT mice served as positive controls.

For the compound `Cc1nn(C)c2nc(NNC(=O)Nc3cc(Cl)nc(Cl)c3)cc(C(C)C)c12` [JTE-013], in assay [1], the edema ratio result is reported as “dramatic decrease”, the infarct ratio entry is recorded as “dramatic decrease” and the neurological scores entry is “improved”. Further, in assay [2], the liver injury entry is “protect against liver injury”. Moreover, the “serum ALB levels” value with bile duct ligated mice (orally by gavage (FIG. 2C)) is recorded as “remained constant”. Moreover, the “survival / mortality post bile duct ligation” value with bile duct ligated mice (orally by gavage, from one day post-surgery, eight-day study (FIG. 1A)) is reported as “lower than that observed for the vehicle arm”. The “S1PR2 levels in liver (immunoblot)” value at S1PR2 is reported as “visible”.
